Calls of active or inactive are those of the source. The rule behind the calls is not given here.
Tests used:
[1] = molecular target: S-adenosylmethionine synthase isoform type-2 (Homo sapiens, UniProt P31153); test: Inhibition of recombinant MAT2A (unknown origin) expressed in baculovirus infected Sf9 insect cells using L-methionine as substrate preincubated for 15 mins followed by substrate addition measured after 60 mins by Kinase-Glo Luminescent assay
HCT-116 [2] = test: Antiproliferative activity against human HCT-116 cells expressing MTAP-/- assessed as inhibition of cell proliferation incubated for 4 days by fluorescence based assay; format: functional; conditions: HCT-116, 96 h
HCT-116 [3] = test: Antitumor activity against human HCT-116 cells expressing MTAP-/- xenografted in BALB/c mouse assessed as tumor growth inhibition at 50 mg/kg, po qd measured for 18 days relative to control; format: functional; conditions: HCT-116, 432 h, time 18 day, read-out: TGI
[4] = Tmax in ICR mouse at 10 mg/kg, po via gavage measured for 0.083 to 24 hrs by LC-MS analysis; format: ADME, organism-based; conditions: in vivo, time 0.083-24 hrs
[5] = Half life in ICR mouse at 10 mg/kg, po via gavage measured for 0.083 to 24 hrs by LC-MS analysis; format: ADME, organism-based; conditions: in vivo, time 0.083-24 hrs
[6] = Cmax in ICR mouse at 10 mg/kg, po via gavage measured for 0.083 to 24 hrs by LC-MS analysis; format: ADME, organism-based; set-up: time upper 24 hrs, dose 10 mg/kg, time lower 0.083 hrs, route po; conditions: in vivo
[7] = AUC in ICR mouse at 10 mg/kg, po via gavage measured for 0.083 to 24 hrs by LC-MS analysis; format: ADME, organism-based; set-up: dose 10 mg/kg, time upper 24 hrs, time lower 0.083 hrs, route po; conditions: in vivo
HCT-116 [8] = test: Antiproliferative activity against human HCT-116 cells assessed as inhibition of cell proliferation incubated for 4 days by fluorescence based assay; format: functional; conditions: HCT-116, 96 h
[9] = MRT in ICR mouse at 10 mg/kg, po via gavage measured for 0.083 to 24 hrs by LC-MS analysis; format: ADME, organism-based; conditions: in vivo, time 0.083-24 hrs
HCT-116 [10] = test: Antitumor activity against human HCT-116 cells expressing MTAP-/- xenografted in BALB/c mouse assessed as decrease in tumor volume at 50 mg/kg, po qd measured after 6 days; format: functional, organism-based; conditions: time 6.0 day
HCT-116 [11] = test: Antitumor activity against human HCT-116 cells expressing MTAP-/- xenografted in BALB/c mouse assessed as tumor regression at 50 mg/kg, po qd measured after 18 days relative to control; format: functional; conditions: time 18 day
[12] = Toxicity in BALB/c mouse xenografted with human HCT-116 cells expressing MTAP-/- assessed as drug tolerance at 50 mg/kg, po qd measured for 18 days; format: organism-based; conditions: in vivo, 432 h, time 18 day
[13] = Toxicity in BALB/c mouse xenografted with human HCT-116 cells expressing MTAP-/- assessed as body weight loss at 50 mg/kg, po qd measured for 18 days relative to control; format: organism-based; conditions: in vivo, 432 h, time 18 day
[14] = Apparent permeability of the compound across apical to basolateral side in MDCKII-MDR1 cells at 2 uM incubated for 2.5 hrs by LC-MS/MS analysis; format: ADME, cell-based, Canis lupus familiaris; conditions: dog, MDCK-MDR1
[15] = Intrinsic clearance in human liver microsomes at […] incubated for 5 to 60 mins in presence of NADPH by LC-MS analysis; format: ADME, Microsome; conditions: time 5-60 min
[16] = Efflux ratio of apparent permeability from basolateral to apical side over apical to basolateral side in MDCKII-MDR1 cells at 2 uM incubated for 2.5 hrs by LC-MS/MS analysis; format: ADME, cell-based, Canis lupus familiaris; conditions: dog, MDCK-MDR1
Cytochrome P450 1A2 = molecular target: T1, Cytochrome P450 1A2 (Homo sapiens, UniProt P05177); test: Inhibition of CYP1A2 in human liver microsomes using phenacetin as substrate preincubated for 10 mins followed by substrate addition measured after 10 mins in presence of NADPH by LC-MS analysis; format: ADME, Microsome
T1 sequence (P05177 whole entry): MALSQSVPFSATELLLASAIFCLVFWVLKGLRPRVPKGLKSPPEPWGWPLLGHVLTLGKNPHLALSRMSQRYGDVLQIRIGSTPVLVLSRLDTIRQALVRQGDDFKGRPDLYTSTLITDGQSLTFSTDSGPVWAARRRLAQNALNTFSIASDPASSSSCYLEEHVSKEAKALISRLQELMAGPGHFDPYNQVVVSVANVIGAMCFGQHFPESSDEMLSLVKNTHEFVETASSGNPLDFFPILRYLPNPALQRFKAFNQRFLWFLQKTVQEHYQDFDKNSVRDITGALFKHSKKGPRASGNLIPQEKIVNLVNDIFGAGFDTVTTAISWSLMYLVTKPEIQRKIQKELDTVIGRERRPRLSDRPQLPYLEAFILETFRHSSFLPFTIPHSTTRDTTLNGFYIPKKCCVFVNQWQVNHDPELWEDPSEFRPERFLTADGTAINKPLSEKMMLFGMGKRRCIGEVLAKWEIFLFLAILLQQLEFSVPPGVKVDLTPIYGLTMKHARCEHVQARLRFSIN

Cytochrome P450 2C9 = Cytochrome P450 2C9 (Homo sapiens, UniProt P11712); test: Inhibition of CYP2C9 in human liver microsomes using diclofenac as substrate preincubated for 10 mins followed by substrate addition measured after 10 mins in presence of NADPH by LC-MS analysis; format: ADME, Microsome
Cytochrome P450 2C19 = Cytochrome P450 2C19 (Homo sapiens, UniProt P33261); test: Inhibition of CYP2C19 in human liver microsomes using S-mephenytoin as substrate preincubated for 10 mins followed by substrate addition measured after 10 mins in presence of NADPH by LC-MS analysis; format: ADME, Microsome
Cytochrome P450 2D6 = Cytochrome P450 2D6 (Homo sapiens, UniProt P10635); test: Inhibition of CYP2D6 in human liver microsomes using dextromethorphan as substrate preincubated for 10 mins followed by substrate addition measured after 10 mins in presence of NADPH by LC-MS analysis; format: ADME, Microsome
Cytochrome P450 3A4 = Cytochrome P450 3A4 (Homo sapiens, UniProt P08684); test: Inhibition of CYP3A4 in human liver microsomes using midazolam as substrate preincubated for 10 mins followed by substrate addition measured after 10 mins in presence of NADPH by LC-MS analysis; format: ADME, Microsome
[17] = molecular target: UDP-glucuronosyltransferases (UGTs); test: Inhibition of UGT (unknown origin) preincubated for 10 mins followed by substrates addition measured after 10 mins by LC-MS analysis; format: ADME, protein assay, Homo sapiens
[18] = molecular target: Voltage-gated inwardly rectifying potassium channel KCNH2 (Homo sapiens, UniProt Q12809); test: Inhibition of hERG potassium ion channel expressed in CHO cells at -80 mV holding potential treated for 2.5 mins by Q patch-clamp method; format: toxicity, cell-based
Sequence of Voltage-gated inwardly rectifying potassium channel KCNH2 (Q12809 whole entry): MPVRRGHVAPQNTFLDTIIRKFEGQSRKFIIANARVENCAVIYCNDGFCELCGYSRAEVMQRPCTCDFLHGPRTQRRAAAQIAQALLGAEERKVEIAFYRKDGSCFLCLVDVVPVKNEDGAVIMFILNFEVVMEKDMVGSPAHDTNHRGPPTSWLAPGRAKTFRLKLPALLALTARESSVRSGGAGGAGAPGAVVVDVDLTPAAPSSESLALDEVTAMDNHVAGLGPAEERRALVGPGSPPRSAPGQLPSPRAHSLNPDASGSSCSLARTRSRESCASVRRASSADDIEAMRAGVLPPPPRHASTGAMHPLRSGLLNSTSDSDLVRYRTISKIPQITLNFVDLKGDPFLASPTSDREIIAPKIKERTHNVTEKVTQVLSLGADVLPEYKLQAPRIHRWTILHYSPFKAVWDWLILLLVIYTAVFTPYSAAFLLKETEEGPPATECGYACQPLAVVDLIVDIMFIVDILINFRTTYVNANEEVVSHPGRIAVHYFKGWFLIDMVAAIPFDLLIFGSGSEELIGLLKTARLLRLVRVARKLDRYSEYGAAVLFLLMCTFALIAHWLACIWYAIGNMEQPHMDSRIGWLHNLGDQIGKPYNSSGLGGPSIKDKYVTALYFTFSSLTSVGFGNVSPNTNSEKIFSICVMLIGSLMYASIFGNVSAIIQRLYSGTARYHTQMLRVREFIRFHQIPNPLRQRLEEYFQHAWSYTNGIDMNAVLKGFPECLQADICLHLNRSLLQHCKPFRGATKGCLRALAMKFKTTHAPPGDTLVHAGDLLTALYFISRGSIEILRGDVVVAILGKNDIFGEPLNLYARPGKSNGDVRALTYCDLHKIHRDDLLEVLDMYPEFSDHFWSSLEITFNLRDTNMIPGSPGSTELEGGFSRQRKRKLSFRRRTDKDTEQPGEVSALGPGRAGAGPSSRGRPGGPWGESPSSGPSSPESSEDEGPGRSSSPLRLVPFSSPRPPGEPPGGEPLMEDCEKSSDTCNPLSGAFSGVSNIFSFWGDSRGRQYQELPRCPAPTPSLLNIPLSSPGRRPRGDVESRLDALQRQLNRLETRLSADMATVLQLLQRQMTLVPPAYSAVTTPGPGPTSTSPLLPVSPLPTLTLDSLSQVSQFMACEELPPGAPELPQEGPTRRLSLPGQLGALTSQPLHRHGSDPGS

Sequence of S-adenosylmethionine synthase isoform type-2 (P31153 whole entry, canonical isoform): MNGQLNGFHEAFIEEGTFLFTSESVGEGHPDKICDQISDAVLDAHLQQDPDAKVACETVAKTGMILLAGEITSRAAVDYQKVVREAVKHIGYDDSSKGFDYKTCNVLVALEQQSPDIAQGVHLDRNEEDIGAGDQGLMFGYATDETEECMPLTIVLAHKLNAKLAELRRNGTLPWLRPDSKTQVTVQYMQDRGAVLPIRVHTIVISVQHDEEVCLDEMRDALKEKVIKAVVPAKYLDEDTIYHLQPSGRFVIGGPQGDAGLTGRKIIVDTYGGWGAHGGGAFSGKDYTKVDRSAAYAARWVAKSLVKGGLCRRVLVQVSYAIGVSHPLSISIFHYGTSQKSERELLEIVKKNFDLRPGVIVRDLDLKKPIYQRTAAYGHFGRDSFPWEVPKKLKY
Sequence of Cytochrome P450 2D6 (P10635 whole entry): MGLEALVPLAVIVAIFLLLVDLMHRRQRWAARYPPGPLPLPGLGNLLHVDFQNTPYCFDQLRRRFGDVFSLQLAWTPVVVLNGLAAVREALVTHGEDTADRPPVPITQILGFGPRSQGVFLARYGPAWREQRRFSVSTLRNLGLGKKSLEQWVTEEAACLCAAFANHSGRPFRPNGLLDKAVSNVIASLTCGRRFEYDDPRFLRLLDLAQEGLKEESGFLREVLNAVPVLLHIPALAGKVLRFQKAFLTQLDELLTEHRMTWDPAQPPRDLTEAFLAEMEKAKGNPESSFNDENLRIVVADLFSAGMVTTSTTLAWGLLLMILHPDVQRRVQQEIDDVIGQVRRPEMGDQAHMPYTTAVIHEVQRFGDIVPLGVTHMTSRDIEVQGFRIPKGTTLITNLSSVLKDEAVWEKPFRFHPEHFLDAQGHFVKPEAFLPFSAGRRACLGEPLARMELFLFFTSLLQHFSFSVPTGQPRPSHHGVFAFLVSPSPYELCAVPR
Sequence of Cytochrome P450 3A4 (P08684 whole entry): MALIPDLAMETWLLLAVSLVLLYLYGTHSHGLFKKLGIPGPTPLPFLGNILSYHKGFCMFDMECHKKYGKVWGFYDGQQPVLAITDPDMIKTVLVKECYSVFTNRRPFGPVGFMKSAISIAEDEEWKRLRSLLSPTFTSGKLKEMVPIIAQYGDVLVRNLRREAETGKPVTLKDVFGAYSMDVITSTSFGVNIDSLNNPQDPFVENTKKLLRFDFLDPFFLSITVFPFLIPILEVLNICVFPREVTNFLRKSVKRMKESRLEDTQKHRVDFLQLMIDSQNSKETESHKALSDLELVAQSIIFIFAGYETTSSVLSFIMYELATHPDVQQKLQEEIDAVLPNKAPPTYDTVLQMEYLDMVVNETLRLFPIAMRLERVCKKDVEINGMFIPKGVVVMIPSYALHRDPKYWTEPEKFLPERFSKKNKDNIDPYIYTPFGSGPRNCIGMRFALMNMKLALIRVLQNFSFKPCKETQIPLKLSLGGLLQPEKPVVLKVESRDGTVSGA
Sequence of Cytochrome P450 2C19 (P33261 whole entry): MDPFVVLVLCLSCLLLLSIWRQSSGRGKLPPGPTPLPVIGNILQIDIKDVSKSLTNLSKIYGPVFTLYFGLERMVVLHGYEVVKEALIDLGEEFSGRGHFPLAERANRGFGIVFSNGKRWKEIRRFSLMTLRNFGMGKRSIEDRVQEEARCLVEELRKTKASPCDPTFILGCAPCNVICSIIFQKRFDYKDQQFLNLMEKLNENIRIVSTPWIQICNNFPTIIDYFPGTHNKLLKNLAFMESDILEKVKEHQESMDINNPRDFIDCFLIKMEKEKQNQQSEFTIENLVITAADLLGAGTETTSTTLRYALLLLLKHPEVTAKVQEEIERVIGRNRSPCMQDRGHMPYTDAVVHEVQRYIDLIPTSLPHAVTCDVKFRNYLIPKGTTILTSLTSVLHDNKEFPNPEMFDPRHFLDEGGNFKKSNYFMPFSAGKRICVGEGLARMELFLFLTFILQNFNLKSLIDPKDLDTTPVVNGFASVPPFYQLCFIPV
Sequence of Cytochrome P450 2C9 (P11712 whole entry): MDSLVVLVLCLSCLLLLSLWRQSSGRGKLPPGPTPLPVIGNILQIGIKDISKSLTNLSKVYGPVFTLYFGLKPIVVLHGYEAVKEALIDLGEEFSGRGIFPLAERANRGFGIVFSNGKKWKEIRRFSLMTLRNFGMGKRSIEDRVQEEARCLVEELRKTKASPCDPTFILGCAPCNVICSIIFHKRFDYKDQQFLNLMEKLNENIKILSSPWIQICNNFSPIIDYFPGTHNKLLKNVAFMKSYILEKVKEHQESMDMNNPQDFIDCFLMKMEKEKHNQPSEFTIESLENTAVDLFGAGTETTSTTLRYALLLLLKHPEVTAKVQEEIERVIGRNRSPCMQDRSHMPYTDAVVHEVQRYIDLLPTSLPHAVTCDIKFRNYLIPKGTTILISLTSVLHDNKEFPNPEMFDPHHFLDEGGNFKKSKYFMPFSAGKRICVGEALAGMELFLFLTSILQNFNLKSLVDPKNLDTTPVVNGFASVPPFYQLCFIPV

IC50 [1]	IC50 (HCT-116 [2])	Compound	also measured
20 nM	56 nM	CCOc1ncc2cc(-c3ccc4nn5c(c4c3)CN(C)CC5)c(=O)n(-c3ccc(OC(F)F)cc3)c2n1	
20 nM	56 nM	CCOc1ncc2cc(-c3ccc4nc5n(c4c3)CCN(CC#N)C5)c(=O)n(-c3ccc(OC(F)F)cc3)c2n1	
	244 nM	COc1ccc(-c2c(Nc3ccccn3)[nH]c3c(C4=CCCCC4)c(-c4ccccc4)nn3c2=O)cc1	inhibition in vivo at 50 mg/kg (HCT-116 [3]): 34%
> 1000 nM	> 10000 nM	CCOc1ncc2c(n1)n(-c1ccc(OC(F)F)cc1)c(=O)n2Cc1ccc2nn(C)cc2c1	
324 nM	6120 nM	CN1CCn2c(nc3ccc(-c4cc5cnc(N6CCC6)nc5n(-c5ccc(OC(F)F)cc5)c4=O)cc32)C1	
26 nM	75 nM	CCOc1ccc2c(=O)n(-c3ccc4nc5n(c4c3)CCN(C)C5)c(=O)n(-c3ccc(OC(F)F)cc3)c2n1	Tmax [4]: 40.2 min; half-life [5]: 179 min; Cmax [6]: 6730 ng/mL; AUC [7]: 41200 ng·h/mL; IC50 (HCT-116 [8]): > 10 µM; MRT [9]: 4.71 h; Activity (HCT-116 [10]): Active; Activity (HCT-116 [11]): -52%; Activity [12]: Non-Toxic; Activity [13]: 12%; Papp A→B at 2.5 h, 2 µM [14]: 2.9 ×10⁻⁶ cm/s; CLint [15]: 20.1 µL/min/mg; efflux ratio at 2.5 h, 2 µM [16]: 8; IC50 (Cytochrome P450 1A2): > 50 µM; IC50 (Cytochrome P450 2C9): 39.2 µM; IC50 (Cytochrome P450 2C19): 29 µM; IC50 (Cytochrome P450 2D6): > 50 µM; IC50 (Cytochrome P450 3A4): 36.9 µM; IC50 [17]: > 50 µM; IC50 [18]: > 50 µM
72 nM	447 nM	CCOc1ncc2cc(-c3cc4c5c(c3)ncn5CCO4)c(=O)n(-c3ccc(OC(F)F)cc3)c2n1	
64 nM	484 nM	COc1ncc2cc(-c3ccc4nc5n(c4c3)CCN(C)C5)c(=O)n(-c3ccc(OC(F)F)cc3)c2n1	
394 nM	3110 nM	CCOc1ncc2cc(-c3ccc4c(c3)nc3n4CCN(C)C3)c(=O)n(-c3ccc(OC(F)F)cc3)c2n1	
39 nM	387 nM	CCOc1ncc2nc(-c3ccc4nn(C)cc4c3)c(=O)n(-c3ccc(OC(F)F)cc3)c2n1	
132 nM	792 nM	CCOc1ncc2cc(-c3ccc4nc5n(c4c3)CCN(C)C5)c(=O)n(-c3ccc(OC)nc3)c2n1	
32 nM	145 nM	Cn1cc2cc(-n3cc4cnc(NCC(F)(F)F)nc4c(-c4ccc(Cl)cc4)c3=O)ccc2n1	
17 nM	50 nM	CCOc1ncc2cc(-c3ccc4nc5n(c4c3)CCN(CCOC)C5)c(=O)n(-c3ccc(OC(F)F)cc3)c2n1	
37 nM	159 nM	CN1CCn2c(nc3ccc(-c4cc5cnc(OCC(F)F)nc5n(-c5ccc(OC(F)F)cc5)c4=O)cc32)C1	
17 nM	53 nM	CCOc1ncc2cc(-c3ccc4nc5n(c4c3)CCN(C(C)C)C5)c(=O)n(-c3ccc(OC(F)F)cc3)c2n1	

— ChEMBL document CHEMBL5380836, “Design and Structural Optimization of Methionine Adenosyltransferase 2A (MAT2A) Inhibitors with High In Vivo Potency and Oral Bioavailability” (J Med Chem, 2023)
